Where two headings read alike, the source gives them in different places.
Legend:
pENSA = pENSA level by immunofluorescence (described method: in vitro kinase analysis with GST-tag-MASTL and His-tag-ENSA); assay type: cell-based; details: for pENSA (%) Immunofluor ecense (1 µM): compound 1 µM; for IC50: read-out: IC50(nM) pENSA
In short: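 In vitro kinase reaction using recombinant GST-tagged MASTL with His-tagged ENSA as substrate; phosphorylated ENSA (pENSA) serves as read-out of MASTL activity. Cell lines named: MCF7 breast cancer and MCF10A.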

[1] = target: T1, Recombinant GST-TAG-MASTL (Homo sapiens, UniProt Q96GX5); assay: HTRF-based kinase assay (HTRF KinEASE assay kit); assay type: biochemical; details: for activity at 1 µM: read-out: MASTL activity (%) HTRF (1 µM); for activity at 10 µM: footnote b: concentration 10 µM
T1 construct: GST; purchased Thermo Fisher Scientific
T1 sequence (Q96GX5 1-879): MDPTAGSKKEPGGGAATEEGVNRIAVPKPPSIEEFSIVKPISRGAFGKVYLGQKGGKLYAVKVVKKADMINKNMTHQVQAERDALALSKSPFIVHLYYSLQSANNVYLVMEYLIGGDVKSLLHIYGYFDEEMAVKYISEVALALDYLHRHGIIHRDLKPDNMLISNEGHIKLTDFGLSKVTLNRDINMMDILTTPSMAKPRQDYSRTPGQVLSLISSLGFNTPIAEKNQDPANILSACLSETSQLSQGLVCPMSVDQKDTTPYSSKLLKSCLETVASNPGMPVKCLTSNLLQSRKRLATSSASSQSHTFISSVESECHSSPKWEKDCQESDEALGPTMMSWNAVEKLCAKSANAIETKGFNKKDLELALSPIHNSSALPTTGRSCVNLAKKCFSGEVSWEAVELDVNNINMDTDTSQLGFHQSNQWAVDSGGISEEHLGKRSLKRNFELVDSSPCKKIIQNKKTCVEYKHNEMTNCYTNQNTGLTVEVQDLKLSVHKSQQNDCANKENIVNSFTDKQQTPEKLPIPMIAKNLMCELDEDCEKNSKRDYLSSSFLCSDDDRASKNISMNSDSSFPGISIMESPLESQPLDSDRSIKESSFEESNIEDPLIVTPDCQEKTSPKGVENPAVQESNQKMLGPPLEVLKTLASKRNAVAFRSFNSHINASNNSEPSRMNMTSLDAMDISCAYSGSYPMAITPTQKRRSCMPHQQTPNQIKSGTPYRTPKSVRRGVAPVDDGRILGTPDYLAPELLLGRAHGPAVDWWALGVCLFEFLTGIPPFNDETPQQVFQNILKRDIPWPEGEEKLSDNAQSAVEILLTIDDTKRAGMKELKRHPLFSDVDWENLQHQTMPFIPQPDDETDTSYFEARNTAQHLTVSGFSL
Description: Recombinant GST-TAG-MASTL (Thermo Fisher Scientific, MA, USA) was used for HTRF-based kinase assays. The HTRF KinEASE assay kit (CisBio, MA, USA) was used according to the manufacturer's instructions.

in vitro = details: human
Description: (§1) MCF7 breast cancer cell lines and MCF10A normal breast cancer cell lines were treated with serial dilutions of the compounds of the present invention ranging from 1 µM to 15.63 nM for 72 hours. Cell viability was measured by the WST-8 assay (Cyto XTM cell viability assay kit; LPS solution, Daejeon, Korea) according to the manufacturer's instructions.

[2] = tested on: MCF10A normal breast cell lines; assay: Cell viability analysis, WST-8 assay, MCF10A; details: Homo sapiens, MCF-10A, 72 h
Description: as §1

[3] = tested on: MCF7 breast cancer cell lines; assay: Cell viability analysis, WST-8 assay, MCF7; details: Homo sapiens, MCF7, 72 h; for viability at 1 µM: read-out: Cell viability (%) WST-8, MCF7 (1 µM), compound 1 µM, 72 hours; for viability at 1.25 µM: read-out: Cell viability (%) WST-8, MCF7, footnote a: concentration 1.25 µM, 72 hours
Description: as §1

[4] = read-out: IC50 Cell viability (MCF10A)
[5] = read-out: IC50 Cell viability (MCF7)
[6] = HTRF, read-out: IC50(nM) MASTL activity
[7] = read-out: MASTL activity (%) HTRF
[8] = read-out: IC50(nM) Cell viability (MCF10A)
[9] = read-out: IC50(nM) Cell viability (MCF7)

NCCNC(=O)c1ccc(Nc2nc(Nc3cc(C4CC4)[nH]n3)c3ccccc3n2)cc1 [4aa, M-(2-aminoethyl)-4-((4-((5-cyclopropyl-1G-pyrazol-3-yl)amino)quinazolin-2-yl)amino)benzamide.trifluoroacetic acid]
pENSA (%) Immunofluor ecense (1 µM) (pENSA): 142.5% | IC50 [1]: 720 nM | activity at 1 µM [1]: 26.8% | viability at 1 µM (in vitro; mcf10a cells): 111% | IC50 [2, 4]: 9000 nM | viability at 1 µM [3]: 87.6% | IC50 [3, 5]: 4500 nM

NCCCNC(=O)c1ccc(Nc2nc(Nc3cc(C4CC4)[nH]n3)c3ccccc3n2)cc1 [4ab, M-(3-aminopropyl)-4-((4-((5-cyclopropyl-1G-pyrazol-3-yl)amino)quinazolin-2-yl)amino)benzamide.trifluoroacetic acid]
pENSA (%) Immunofluor ecense (1 µM) (pENSA): 188% | IC50 [1]: 1100 nM | activity at 1 µM [1]: 36.2% | viability at 1 µM (in vitro; mcf10a cells): 101% | IC50 [2, 4]: 5800 nM | viability at 1 µM [3]: 101% | IC50 [3, 5]: 12400 nM

CNCc1ccc(-c2nc(Nc3cc(C4CC4)[nH]n3)c3ccccc3n2)cc1 [9d, N-(5-cyclopropyl-1H-pyrazol-3-yl)-2-(4-((methylamino)methyl)phenyl)quinazolin-4-amine hydrogen chloride]
IC50 (pENSA): 577 nM | IC50 [1, 6]: 119 nM | activity at 10 µM [1, 7]: 20.4% | viability at 1.25 µM (in vitro): 11.1% | IC50 [2, 8]: 413 nM | viability at 1.25 µM [3]: 36.2% | IC50 [3, 9]: 539 nM

c1ccc2c(Nc3cc(C4CC4)[nH]n3)nc(N3CC4CCC(C3)N4)nc2c1 [20' (B), 2-(3,8-diazabicyclo[3.2.1]octan-3-yl)-M-(5-cyclopropyl-1G-pyrazol-3-yl)quinazolin-4-amine trifluoroacetic acid]
pENSA (%) Immunofluor ecense (1 µM) (pENSA): 21% | IC50 (pENSA): 755 nM | IC50 [1]: 106 nM | activity at 1 µM [1]: 6.6% | viability at 1 µM (in vitro; mcf10a cells): 34.9% | IC50 [2, 8]: 596 nM | viability at 1 µM [3]: 32% | IC50 [3, 9]: 365 nM

c1ccc(Nc2nc(Nc3cc(C4CC4)[nH]n3)c3ccccc3n2)cc1 [compound 4a, M^4-(5-cyclopropyl-1G-pyrazol-3-yl)-M^2-phenylquinazoline-2,4-diamine]
pENSA (%) Immunofluor ecense (1 µM) (pENSA): 3.7% | IC50 (pENSA): 501 nM | IC50 [1, 6]: 987 nM | activity at 1.25 µM ([1]; footnote a: concentration 1.25 µM, read-out: MASTL activity (%) HTRF): 54.9% | viability at 1.25 µM (in vitro; mcf10a cells): 34% | IC50 [2, 8]: 881 nM | viability at 1.25 µM [3]: 8.1% | IC50 [3, 9]: 649 nM

Nc1nc(Nc2cc(C3CC3)[nH]n2)c2ccccc2n1 [compound 4ca, N^4-(5-cyclopropyl-1H-pyrazol-3-yl)quinazoline-2,4-diamine]
IC50 ([1]; HTRF, unit µM, read-out: IC50 MASTL activity): 1800 nM | activity at 10 µM [1, 7]: 37.4% | viability at 1.25 µM (in vitro): 99.1% | IC50 [2, 4]: 2800 nM | viability at 1.25 µM [3]: 43% | IC50 [3, 5]: 1700 nM

c1ccc(CNc2nc(Nc3cc(C4CC4)[nH]n3)c3ccccc3n2)cc1 [compound 4cc, N^2-benzyl-N^4-(5-cyclopropyl-1H-pyrazol-3-yl)quinazoline-2,4-diamine]
IC50 (pENSA): 363 nM | IC50 [1, 6]: 298 nM | activity at 10 µM [1, 7]: 22% | viability at 1.25 µM (in vitro): 98.5% | IC50 [2, 4]: 2800 nM | viability at 1.25 µM [3]: 65.5% | IC50 [3, 5]: 1100 nM

COc1ccc(CNc2nc(Nc3cc(C4CC4)[nH]n3)c3ccccc3n2)cc1 [compound 4cd, N^4-(5-cyclopropyl-1H-pyrazol-3-yl)-N^2-(4-methoxybenzyl)quinazoline-2,4-diamine]
IC50 (pENSA): 543 nM | IC50 [1, 6]: 476 nM | activity at 10 µM [1, 7]: 20.3% | viability at 1.25 µM (in vitro): 83.9% | IC50 [2, 4]: 2700 nM | viability at 1.25 µM [3]: 83.8% | IC50 [3, 5]: 2600 nM

CN(C)S(=O)(=O)c1ccc(Nc2nc(Nc3ccc(C(F)(F)F)cc3)nc3ccccc23)cc1 [compound 25c, M,M-dimethyl-4-((2-((4-(trifluoromethyl)phenyl)amino)quinazolin-4-yl)amino)benzenesulfonamide]
pENSA (%) Immunofluor ecense (1 µM) (pENSA): 96.5% | activity at 1 µM [1]: 108% | viability at 1 µM (in vitro; mcf10a cells): 90% | viability at 1 µM [3]: 86.4%

CN(C)S(=O)(=O)c1ccc(Nc2nc(Nc3ccccc3)nc3ccccc23)cc1 [compound 25d, M,M-dimethyl-4-((2-(phenylamino)quinazolin-4-yl)amino)benzenesulfonamide]
pENSA (%) Immunofluor ecense (1 µM) (pENSA): 80.6% | activity at 1 µM [1]: 107% | viability at 1 µM (in vitro; mcf10a cells): 106% | viability at 1 µM [3]: 90.8%

Cc1cc(Nc2nc(N3CC4CC3CN4C(=O)C(C)C)nc3ccccc23)n[nH]1 (stereo not shown) [compound 27c, 2-methyl-1-(5-(4-((5-methyl-1G-pyrazol-3-yl)amino)quinazolin-2-yl)-2,5-diazabicyclo[2.2.1]heptan-2-yl)propan-1-one]
pENSA (%) Immunofluor ecense (1 µM) (pENSA): 90.5% | activity at 1 µM ([1]; compound 1 µM): 102% | viability at 1 µM (in vitro; mcf10a cells): 46.7% | viability at 1 µM [3]: 103%

Cc1cc(Nc2nc(N3CC4CC3CN4C(=O)c3ccccc3)nc3ccccc23)n[nH]1 (stereo not shown) [compound 27d, (5-(4-((5-methyl-1G-pyrazol-3-yl)amino)quinazolin-2-yl)-2,5-diazabicyclo[2.2.1]heptan-2-yl)(phenyl)methanone]
pENSA (%) Immunofluor ecense (1 µM) (pENSA): 60.6% | activity at 1 µM ([1]; compound 1 µM): 121% | viability at 1 µM (in vitro; mcf10a cells): 48.3% | viability at 1 µM [3]: 94.9%

Cc1cc(Nc2nc(N3CC4CC3CN4CC(C)C)nc3ccccc23)n[nH]1 (stereo not shown) [compound 27e, 2-(5-isobutyl-2,5-diazabicyclo[2.2.1]heptan-2-yl)-M-(5-methyl-1G-pyrazol-3-yl)quinazolin-4-amine]
pENSA (%) Immunofluor ecense (1 µM) (pENSA): 90.1% | activity at 1 µM ([1]; compound 1 µM): 67.4% | viability at 1 µM (in vitro; mcf10a cells): 74.8% | viability at 1 µM [3]: 88.3%

Cc1cc(Nc2nc(N3CC4CC3CN4Cc3ccccc3)nc3ccccc23)n[nH]1 (stereo not shown) [compound 27f, 2-(5-benzyl-2,5-diazabicyclo[2.2.1]heptan-2-yl)-M-(5-methyl-1G-pyrazol-3-yl)quinazolin-4-amine]
pENSA (%) Immunofluor ecense (1 µM) (pENSA): 77.4% | activity at 1 µM ([1]; compound 1 µM): 78.4% | viability at 1 µM (in vitro; mcf10a cells): 113% | viability at 1 µM [3]: 109%

CC(C)C(=O)N1CC2CC1CN2c1nc(Nc2cn[nH]c2)c2ccccc2n1 (stereo not shown) [compound 28c, 1-(5-(4-((1G-pyrazol-4-yl)amino)quinazolin-2-yl)-2,5-diazabicyclo[2.2.1]heptan-2-yl)-2-methylpropan-1-one]
pENSA (%) Immunofluor ecense (1 µM) (pENSA): 80.0% | activity at 1 µM ([1]; compound 1 µM): 117% | viability at 1 µM (in vitro; mcf10a cells): 85.3% | viability at 1 µM [3]: 105%

O=C(c1ccccc1)N1CC2CC1CN2c1nc(Nc2cn[nH]c2)c2ccccc2n1 (stereo not shown) [compound 28d, (5-(4-((1G-pyrazol-4-yl)amino)quinazolin-2-yl)-2,5-diazabicyclo[2.2.1]heptan-2-yl)(phenyl)methanone]
pENSA (%) Immunofluor ecense (1 µM) (pENSA): 66.9% | activity at 1 µM ([1]; compound 1 µM): 119% | viability at 1 µM (in vitro; mcf10a cells): 49.7% | viability at 1 µM [3]: 93.1%

CC(C)CN1CC2CC1CN2c1nc(Nc2cn[nH]c2)c2ccccc2n1 (stereo not shown) [compound 28e, 2-(5-isobutyl-2,5-diazabicyclo[2.2.1]heptan-2-yl)-M-(1G-pyrazol-4-yl)quinazolin-4-amine]
pENSA (%) Immunofluor ecense (1 µM) (pENSA): 95.8% | activity at 1 µM ([1]; compound 1 µM): 103% | viability at 1 µM (in vitro; mcf10a cells): 105% | viability at 1 µM [3]: 97.3%

c1ccc(CN2CC3CC2CN3c2nc(Nc3cn[nH]c3)c3ccccc3n2)cc1 (stereo not shown) [compound 28f, 2-(5-benzyl-2,5-diazabicyclo[2.2.1]heptan-2-yl)-M-(1G-pyrazol-4-yl)quinazolin-4-amine]
pENSA (%) Immunofluor ecense (1 µM) (pENSA): 85.1% | activity at 1 µM ([1]; compound 1 µM): 118% | viability at 1 µM (in vitro; mcf10a cells): 101% | viability at 1 µM [3]: 110%
